According to patent publication US11820984B2, “Double-helix oligonucleotide construct comprising double-stranded miRNA and use thereof” (BIONEER CORPORATION, priority 2018, dated 2023):

Assays:
[1] = tested on: PC9/GR, PC9/ER, H1975, H596 and H1650 cell lines having resistance to erlotinib; assay: relative cell viability (CellTiter-Glo), erlotinib-resistant lines; format: cell-based; settings: cell lines having resistance to erlotinib (EGFR T790M etc.), 96 hours
Method: After 96 hours of additional culture, the relative viability of the cells was measured. […] On the other hand, PC9/GR and PC9/ER contain delE764-A750 mutation, like PC9, and have T790M mutation. […] H1975 has L858R and T790M mutations, H596 has overexpressed EGFR, and H1650 has delE764-A750 mutation. […] The cell viability was measured using the CellTiter-Glo used in Example 1.

PC9 cell line = assay: relative cell viability (CellTiter-Glo), erlotinib-sensitive line; format: cell-based; settings: PC9, 96 hours
Method: After 96 hours of additional culture, the relative viability of the cells was measured. These cell lines were used because they have genetic characteristics and drug resistance as follows. […] On the other hand, PC9/GR and PC9/ER contain delE764-A750 mutation, like PC9, and have T790M mutation. […] H1975 has L858R and T790M mutations, H596 has overexpressed EGFR, and H1650 has delE764-A750 mutation. […] The cell viability was measured using the CellTiter-Glo used in Example 1.

[2] = tested on: lung cancer cell lines H2009, H596, H1650, PC9, PC9/GR, H1975, HCC827, and A549; assay: miRNA library screening, inhibition of proliferation (CellTiter-Glo); format: cell-based; settings: 40 nM miRNA with RNAiMax, 96 hours, eight lung cancer cell lines
Method: Using the same miRNA library used in Korean Patent Application No. 10-2016-0022462, an experiment was performed to screen miRNAs that induce apoptosis of lung cancer cell lines. The lung cancer cell lines used in the experiment are as follows: H2009, H596, H1650, PC9, PC9/GR, H1975, HCC827, and A549 (purchased from the ATCC or the Korean Cell Line Bank). Each of the cell lines was seeded into a 96-well plate and treated with 40 nM of each miRNA together with the transfection reagent RNAiMax (Invitrogen), and the miRNA was delivered into the cells. After 96 hours of additional culture, the relative growth of the cells was measured using CellTiter-Glo reagent (Promega) (FIGS. 1 to 4).

EGFR mRNA = assay: RT-qPCR relative expression level of EGFR mRNA; format: cell-based; settings: PC9, PC9/ER, H1975 and H596, versus negative control
[3] = tested on: PC9 and PC9/ER cell lines; assay: apoptosis analysis by annexin V / propidium iodide flow cytometry (FACS); format: cell-based; settings: RNAiMax transfection, 48 hours, versus miRNA control
Method: After 48 hours of additional culture, the cells were treated with FITC fluorescent dye-labeled annexin V and propidium iodide (PI) and analyzed by flow cytometry (FACS).

[4] = tested on: proteins involved in the EGFR signaling pathway; assay: Western blot analysis of proteins involved in the EGFR signaling pathway; format: cell-based
From the text: It is known that the EGFR signaling pathway in the lung cancer cell lines used in the Examples is activated due to the presence of mutation in the EGFR protein and activation of the EGFR signaling pathway plays an important role in the survival of the cell lines.

3′ UTR of EGFR mRNA = assay: luciferase assay with EGFR 3′ UTR firefly luciferase vector in HEK cells; format: cell-based, human
From the text: Since miRNA inhibits protein production from target mRNA by binding to the 3′ UTR (untranslated region) of the target mRNA, luciferase assay is generally used as a method of directly measuring the relationship between miRNA and the target mRNA. Using the TargetScan software, a 3′ UTR sequence comprising a miRNA binding sequence was predicted. The predicted 3′ UTR sequence was cloned into the 3′ UTR of firefly luciferase by a gene cloning technique. The constructed vector and the miRNA of interest were co-transfected into human embryonic kidney (HEK) cells, and the luciferase expression level of the vector was measured. […] At this time, in order to correct the transfection efficiency, Renilla luciferase was also transfected to correct the measurement value. After co-transfection of the miRNA, firefly luciferase and Renilla luciferase, the cells were cultured for 48 hours, and then the luciferase activity was measured using a luminometer.

[5] = Western blot, versus control group

Row | Compound | concentration at which apoptosis of the cells could be induced [1] | concentration at which cells could be killed (PC9 cell line) | inhibition of cell proliferation (relative growth of the cells) [2] | expression of EGFR mRNA (EGFR mRNA) | number of dead cells (annexin V/PI) [3] | inhibition of pEGFR and ERK phosphorylation, apoptosis (PARP) by Western blot ([4]; PC9 cell line) | amount of ERK, an activated form of the ERK protein ([4]; Western blot) | expression level of phosphorylated EGFR [4, 5] | expression level of the EGFR protein [4, 5] | inhibition of pEGFR and ERK phosphorylation, apoptosis (PARP) by Western blot ([4]; other cell lines having erlotinib resistance due to EGFR T790M mutation) | luciferase activity, EGFR 3′UTR vector (3′ UTR of EGFR mRNA; HEK cells, co-transfection, 48 hours, Renilla-corrected) | luciferase activity, EGFR 3′UTR with mutations in target regions (3′ UTR of EGFR mRNA; mutations EGFR 3′UTR 250-256, 2288-2295, and 3476-3482 nt)
1 | C#Cc1cccc(Nc2ncnc3cc(OCCOC)c(OCCOC)cc23)c1 [erlotinib] | 10 µM | 0.1 µM |  |  |  |  |  |  |  |  |  | 
2 | miR-544a: double-stranded miRNA consisting of SEQ ID NO: 1 (5'-AUUCUGCAUUUUUAGCAAGUUC-3') and SEQ ID NO: 2 (5'-ACUUGCUAAAAAUGCAGAAUUU-3') (listed as RNA, chemistry not given here) |  |  | excellent effect against the cell lines used | decreased in all the cell lines used in the experiment | significantly higher than that in the cell line treated with the miRNA control | inhibit activated EGFR (pEGFR) and inhibit phosphorylation of the downstream signaling factor ERK | decreased | also decreased compared to that in the control group | significantly decreased compared to that in the control group | only miR-544a exhibits this effect | each target mRNA was controlled directly by the miRNA | the expression inhibition phenomenon by the miRNA disappeared
